Literature values, collected in patent US11091809B2, “Molecular diagnostic test for cancer” (ALMAC DIAGNOSTICS LIMITED, priority 2012, dated 2021).

Experiments:
renal cancer = conditions: bevacizumab monotherapy
ovarian cancer = conditions: bevacizumab monotherapy
rectal cancer = conditions: bevacizumab monotherapy
[1] = tested on: primary peritoneal carcinoma, fallopian tube carcinoma, and epithelial ovarian carcinoma; conditions: ICON7

In the case of “bevacizumab: recombinant humanised version of a murine anti-human VEGF monoclonal antibody”, the “patients showing partial regression” value (renal cancer) is listed as 10%, the “patients showing partial regression” value (ovarian cancer) is listed as 21% and the “patients showing partial regression” value (rectal cancer) is listed as 33%. The “hazard ratio for death” value ([1]; bevacizumab group, patients at high risk of progression (FIGO stage IV or stage III with greater than 1.0 cm residual disease after debulking surgery)) was 0.64 and the “hazard ratio for progression-free survival” value ([1]; standard chemotherapy (carboplatin and paclitaxel) and bevacizumab vs standard chemotherapy) was 0.81.
